Where two headings read alike, the source gives them in different places.
Target: T1, recombinant human NaV1.8 stably transfected HEK cells (Homo sapiens, UniProt Q9Y5Y9)
T1 construct: expressed in transfected cells; host or cells: HEK cells, stably transfected
Test: Compound profiling on NaV1.8, human NaV1.8 cell line, SyncroPatch384PE automated patch clamp assay (Example 102, first set of compounds, Table 16)
Assay type: cell-based
Conditions: human NaV1.8 HEK cells, Table 16 (first set of compounds)
Summary of the method: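 IC50s come from two read-outs: resting-state block (P1, 10 mV step from −120 mV) and inactivated-state block (P2, after 10 s at −40 mV), scaled between DMSO and 250 μM tetracaine. Compounds (20–0.001 μM final, 1:3 steps) were applied for 5 min, 15 s sweeps. Cells kept at 30 °C the day before.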

[1] = inactivated state block (P2 measurement), read-out: P2IC50
[2] = resting state block (P1 measurement), read-out: P1IC50

T1 sequence (Q9Y5Y9 whole entry): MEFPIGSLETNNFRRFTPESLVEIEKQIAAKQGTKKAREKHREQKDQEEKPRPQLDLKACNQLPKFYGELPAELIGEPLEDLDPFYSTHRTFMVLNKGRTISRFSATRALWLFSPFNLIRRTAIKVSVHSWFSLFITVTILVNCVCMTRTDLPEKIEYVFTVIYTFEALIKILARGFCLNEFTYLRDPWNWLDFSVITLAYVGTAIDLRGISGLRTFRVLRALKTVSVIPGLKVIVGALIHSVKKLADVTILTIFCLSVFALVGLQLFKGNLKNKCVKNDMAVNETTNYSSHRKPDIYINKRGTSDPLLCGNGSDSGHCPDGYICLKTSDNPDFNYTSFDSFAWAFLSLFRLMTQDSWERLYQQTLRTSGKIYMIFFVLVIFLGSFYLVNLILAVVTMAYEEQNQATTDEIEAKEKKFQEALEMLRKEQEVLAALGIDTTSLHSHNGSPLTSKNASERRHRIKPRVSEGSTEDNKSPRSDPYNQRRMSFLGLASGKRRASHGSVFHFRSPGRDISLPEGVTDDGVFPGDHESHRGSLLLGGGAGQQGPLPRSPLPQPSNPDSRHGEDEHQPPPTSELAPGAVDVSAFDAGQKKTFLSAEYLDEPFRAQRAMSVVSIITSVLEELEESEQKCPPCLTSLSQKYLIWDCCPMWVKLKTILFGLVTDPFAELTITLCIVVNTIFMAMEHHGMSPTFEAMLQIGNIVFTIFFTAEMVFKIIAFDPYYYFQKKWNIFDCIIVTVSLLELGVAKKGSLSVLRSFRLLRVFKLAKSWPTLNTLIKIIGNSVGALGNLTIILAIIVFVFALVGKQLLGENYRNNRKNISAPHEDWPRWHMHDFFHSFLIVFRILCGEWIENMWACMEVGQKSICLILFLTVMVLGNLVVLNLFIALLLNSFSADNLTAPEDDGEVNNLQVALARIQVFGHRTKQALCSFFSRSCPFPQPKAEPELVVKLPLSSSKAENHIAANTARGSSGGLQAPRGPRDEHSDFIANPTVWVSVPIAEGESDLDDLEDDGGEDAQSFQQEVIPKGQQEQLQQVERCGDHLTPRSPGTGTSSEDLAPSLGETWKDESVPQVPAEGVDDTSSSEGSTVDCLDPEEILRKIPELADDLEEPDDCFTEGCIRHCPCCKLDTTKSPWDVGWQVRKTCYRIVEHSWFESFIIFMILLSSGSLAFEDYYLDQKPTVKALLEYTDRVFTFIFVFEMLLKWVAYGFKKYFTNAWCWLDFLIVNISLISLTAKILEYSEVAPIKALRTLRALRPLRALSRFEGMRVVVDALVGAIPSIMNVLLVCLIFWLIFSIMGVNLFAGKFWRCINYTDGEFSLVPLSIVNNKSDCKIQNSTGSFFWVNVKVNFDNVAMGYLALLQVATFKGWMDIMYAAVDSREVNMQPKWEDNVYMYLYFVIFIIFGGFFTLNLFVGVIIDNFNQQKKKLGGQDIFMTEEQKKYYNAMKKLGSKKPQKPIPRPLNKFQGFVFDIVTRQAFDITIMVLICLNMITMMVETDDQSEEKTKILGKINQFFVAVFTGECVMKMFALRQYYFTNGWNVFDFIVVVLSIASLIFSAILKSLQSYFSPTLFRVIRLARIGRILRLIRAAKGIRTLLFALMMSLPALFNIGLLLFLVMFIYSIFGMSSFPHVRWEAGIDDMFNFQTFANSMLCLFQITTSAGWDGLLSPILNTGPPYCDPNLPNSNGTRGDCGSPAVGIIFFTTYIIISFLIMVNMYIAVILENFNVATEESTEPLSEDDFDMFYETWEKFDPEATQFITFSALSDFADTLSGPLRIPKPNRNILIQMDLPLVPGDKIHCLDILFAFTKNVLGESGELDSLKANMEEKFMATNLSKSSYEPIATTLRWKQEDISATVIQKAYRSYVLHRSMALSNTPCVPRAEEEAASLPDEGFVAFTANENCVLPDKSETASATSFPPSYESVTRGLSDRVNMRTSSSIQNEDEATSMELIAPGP

`COc1cc(C#N)ccc1Oc1nnc(-c2ccc(C)cc2)c(C)c1C(=O)Nc1cccc(S(C)(=N)=O)c1` (stereo not drawn) [Compound 1450, 3-(4-cyano-2-methoxy-phenoxy)-5-methyl-N-[3-(methylsulfonimidoyl)phenyl]-6-(p-tolyl)pyridazine-4-carboxamide] gave an IC50 [1] of at most 20 nM and an IC50 [2] of at most 20 nM.

`COc1cc(C#N)ccc1Oc1nnc(-c2cccc(C#N)c2)c(C)c1C(=O)Nc1cccc(S(C)(=N)=O)c1` (stereo not drawn) [Compound 1451, 3-(4-cyano-2-methoxy-phenoxy)-6-(3-cyanophenyl)-5-methyl-N-[3-(methylsulfonimidoyl)phenyl]pyridazine-4-carboxamide] gave an IC50 [1] of 200 to 500 nM and an IC50 [2] of 200 to 500 nM.

Work on `COc1cc(C#N)ccc1Oc1nnc(-c2ccccc2F)c(C)c1C(=O)Nc1cccc(S(C)(=N)=O)c1` (stereo not drawn) [Compound 1452, 3-(4-cyano-2-methoxy-phenoxy)-6-(2-fluorophenyl)-5-methyl-N-[3-(methylsulfonimidoyl)phenyl]pyridazine-4-carboxamide] yielded an IC50 [1] of 40 to 200 nM and an IC50 [2] of 40 to 200 nM.

`COc1cc(C#N)ccc1Oc1nnc(-c2ccc(C(F)F)cc2)c(C)c1C(=O)Nc1cccc(S(C)(=N)=O)c1` (stereo not drawn) [Compound 1453, 3-(4-cyano-2-methoxy-phenoxy)-6-[4-(difluoromethyl)phenyl]-5-methyl-N-[3-(methylsulfonimidoyl)phenyl]pyridazine-4-carboxamide] showed an IC50 [1] of at most 20 nM and an IC50 [2] of at most 20 nM.

Work on `COc1ccc(-c2nnc(Oc3ccc(C#N)cc3OC)c(C(=O)Nc3cccc(S(C)(=N)=O)c3)c2C)cc1` (stereo not drawn) [Compound 1454, 3-(4-cyano-2-methoxy-phenoxy)-6-(4-methoxyphenyl)-5-methyl-N-[3-(methylsulfonimidoyl)phenyl]pyridazine-4-carboxamide] yielded an IC50 [1] of at most 20 nM and an IC50 [2] of at most 20 nM.

In the case of `COc1cc(C#N)ccc1Oc1nnc(-c2ccc(C)nc2)c(C)c1C(=O)Nc1cccc(S(C)(=N)=O)c1` (stereo not drawn) [Compound 1455, 3-(4-cyano-2-methoxy-phenoxy)-5-methyl-6-(6-methyl-3-pyridyl)-N-[3-(methylsulfonimidoyl)phenyl]pyridazine-4-carboxamide], the IC50 [1] is reported as 200 to 500 nM and the IC50 [2] is reported as 200 to 500 nM.

With `COc1cc(C#N)ccc1Oc1nnc(-c2ccnnc2)c(C)c1C(=O)Nc1cccc(S(C)(=N)=O)c1` (stereo not drawn) [Compound 1456, 3-(4-cyano-2-methoxy-phenoxy)-5-methyl-N-[3-(methylsulfonimidoyl)phenyl]-6-pyridazin-4-yl-pyridazine-4-carboxamide] the IC50 [1] was 200 to 500 nM and the IC50 [2] was 200 to 500 nM.

`COc1cc(C#N)ccc1Oc1nnc(-c2cnc(C)nc2)c(C)c1C(=O)Nc1cccc(S(C)(=N)=O)c1` (stereo not drawn) [Compound 1457, 3-(4-cyano-2-methoxy-phenoxy)-5-methyl-6-(2-methylpyrimidin-5-yl)-N-[3-(methylsulfonimidoyl)phenyl]pyridazine-4-carboxamide] was tested, and the IC50 [1] was 200 to 500 nM and the IC50 [2] was 200 to 500 nM.

`COc1cc(C#N)ccc1Oc1nnc(-c2ccccn2)c(C)c1C(=O)Nc1cccc(S(C)(=N)=O)c1` (stereo not drawn) [Compound 1458, 3-(4-cyano-2-methoxyphenoxy)-5-methyl-N-(3-(S-methylsulfonimidoyl)phenyl)-6-(pyridin-2-yl)pyridazine-4-carboxamide] showed an IC50 [1] of 200 to 500 nM and an IC50 [2] of 200 to 500 nM.

Molecule `COc1cc(C#N)ccc1Oc1nnc(-c2cnc(C(F)(F)F)s2)c(C)c1C(=O)Nc1cccc(S(C)(=N)=O)c1` (stereo not drawn) [Compound 1459, 3-(4-cyano-2-methoxy-phenoxy)-5-methyl-N-[3-(methylsulfonimidoyl)phenyl]-6-[2-(trifluoromethyl)thiazol-5-yl]pyridazine-4-carboxamide] has an IC50 [1] of at most 20 nM and an IC50 [2] of at most 20 nM.

`COc1cc(C#N)ccc1Oc1nnc(-c2cncs2)c(C)c1C(=O)Nc1cccc(S(C)(=N)=O)c1` (stereo not drawn) [Compound 1460, 3-(4-cyano-2-methoxy-phenoxy)-5-methyl-N-[3-(methylsulfonimidoyl)phenyl]-6-thiazol-5-yl-pyridazine-4-carboxamide] showed an IC50 [1] of 200 to 500 nM and an IC50 [2] of 200 to 500 nM.

`COc1ncc(-c2nnc(Oc3ccc(C#N)cc3OC)c(C(=O)Nc3cccc(S(C)(=N)=O)c3)c2C)s1` (stereo not drawn) [Compound 1461, 3-(4-cyano-2-methoxy-phenoxy)-6-(2-methoxythiazol-5-yl)-5-methyl-N-[3-(methylsulfonimidoyl)phenyl]pyridazine-4-carboxamide; formic acid] was tested, and the IC50 [1] was 40 to 200 nM and the IC50 [2] was 200 to 500 nM.

`COc1cc(C#N)ccc1Oc1nnc(-c2ncco2)c(C)c1C(=O)Nc1cccc(S(C)(=N)=O)c1` (stereo not drawn) [Compound 1462, 3-(4-cyano-2-methoxy-phenoxy)-5-methyl-N-[3-(methylsulfonimidoyl)phenyl]-6-oxazol-2-yl-pyridazine-4-carboxamide; formic acid] was tested, and the IC50 [1] was 200 to 500 nM and the IC50 [2] was 200 to 500 nM.

For `COc1cc(C#N)ccc1Oc1nnc(-c2nccs2)c(C)c1C(=O)Nc1cccc(S(C)(=N)=O)c1` (stereo not drawn) [Compound 1463, 3-(4-cyano-2-methoxy-phenoxy)-5-methyl-N-[3-(methylsulfonimidoyl)phenyl]-6-thiazol-2-yl-pyridazine-4-carboxamide], the IC50 [1] was at most 20 nM and the IC50 [2] was at most 20 nM.

Work on `COc1cc(C#N)ccc1Oc1nnc(-c2ccc(C)cn2)c(C)c1C(=O)Nc1cccc(S(C)(=N)=O)c1` (stereo not drawn) [Compound 1464, 3-(4-cyano-2-methoxy-phenoxy)-5-methyl-6-(5-methyl-2-pyridyl)-N-[3-(methylsulfonimidoyl)phenyl]pyridazine-4-carboxamide] yielded an IC50 [1] of 200 to 500 nM and an IC50 [2] of 200 to 500 nM.

Work on `Cc1cc(C#N)ccc1Oc1nnc(C(F)(F)F)c(C)c1C(=O)Nc1cccc(S(C)(=O)=O)c1` [Compound 1465, 3-(4-cyano-2-methylphenoxy)-N-(3-methanesulfonylphenyl)-5-methyl-6-(trifluoromethyl)pyridazine-4-carboxamide] yielded an IC50 [1] of at most 20 nM and an IC50 [2] of at most 20 nM.

`Cc1cc(F)ccc1Oc1nnc(C(F)(F)F)c(C)c1C(=O)Nc1cccc(S(N)(=O)=O)c1` [Compound 1466, 3-(4-fluoro-2-methylphenoxy)-5-methyl-N-(3-sulfamoylphenyl)-6-(trifluoromethyl)pyridazine-4-carboxamide] showed an IC50 [1] of at most 20 nM and an IC50 [2] of at most 20 nM.

For `Cc1c(C(F)(F)F)nnc(Oc2ccc(OC(F)(F)F)cc2F)c1C(=O)Nc1cccc(S(C)(=O)=O)c1` [Compound 1467, 3-[2-fluoro-4-(trifluoromethoxy)phenoxy]-N-(3-methanesulfonylphenyl)-5-methyl-6-(trifluoromethyl)pyridazine-4-carboxamide], the IC50 [1] was at most 20 nM and the IC50 [2] was at most 20 nM.

`Cc1nc(C(F)(F)F)ccc1Oc1nnc(C(F)(F)F)c(C)c1C(=O)Nc1cccc(S(C)(=O)=O)c1` [Compound 1468, N-(3-methanesulfonylphenyl)-5-methyl-3-{[2-methyl-6-(trifluoromethyl)pyridin-3-yl]oxy}-6-(trifluoromethyl)pyridazine-4-carboxamide] showed an IC50 [1] of at most 20 nM and an IC50 [2] of at most 20 nM.

`Cc1nc(Br)ccc1Oc1nnc(C(F)(F)F)c(C)c1C(=O)Nc1cccc(S(C)(=O)=O)c1` [Compound 1469, 3-[(6-bromo-2-methylpyridin-3-yl)oxy]-N-(3-methanesulfonylphenyl)-5-methyl-6-(trifluoromethyl)pyridazine-4-carboxamide] gave an IC50 [1] of at most 20 nM and an IC50 [2] of at most 20 nM.

`Cc1c(C(F)(F)F)nnc(OCC23CC(F)(C2)C3)c1C(=O)Nc1cccc(S(C)(=N)=O)c1` (stereo not drawn) [Compound 1470, 3-[(3-fluoro-1-bicyclo[1.1.1]pentanyl)methoxy]-5-methyl-N-[3-(methylsulfonimidoyl)phenyl]-6-(trifluoromethyl)pyridazine-4-carboxamide] showed an IC50 [1] of 200 to 500 nM and an IC50 [2] of 200 to 500 nM.

`COc1c(Oc2nnc(C(F)(F)F)c(C)c2C(=O)Nc2cccnc2)ccc(F)c1F` [Compound 1475, 3-(3,4-difluoro-2-methoxy-phenoxy)-5-methyl-N-(3-pyridyl)-6-(trifluoromethyl)pyridazine-4-carboxamide] was tested, and the IC50 [1] was at most 20 nM and the IC50 [2] was at most 20 nM.

`COc1c(Oc2nnc(C(F)(F)F)c(C)c2C(=O)Nc2ccc[n+]([O-])c2)ccc(F)c1F` [Compound 1476, 3-(3,4-difluoro-2-methoxy-phenoxy)-5-methyl-N-(1-oxidopyridin-1-ium-3-yl)-6-(trifluoromethyl)pyridazine-4-carboxamide] gave an IC50 [1] of at most 20 nM and an IC50 [2] of at most 20 nM.

With `Cc1c(Oc2nnc(C(F)(F)F)c(C)c2C(=O)Nc2cccc(S(C)(=N)=O)c2)ccc(Cl)c1F` (stereo not drawn) [Compound 1486, 3-(4-chloro-3-fluoro-2-methyl-phenoxy)-5-methyl-N-[3-(methylsulfonimidoyl)phenyl]-6-(trifluoromethyl)pyridazine-4-carboxamide] the IC50 [1] was at most 20 nM and the IC50 [2] was at most 20 nM.

In the case of `COc1c(Oc2nnc(C(F)(F)F)c(C)c2C(=O)Nc2cccc(S(C)(=N)=O)c2)ccc(Cl)c1F` (stereo not drawn) [Compound 1489, 3-(4-chloro-3-fluoro-2-methoxy-phenoxy)-5-methyl-N-[3-(methylsulfonimidoyl)phenyl]-6-(trifluoromethyl)pyridazine-4-carboxamide], the IC50 [1] is reported as at most 20 nM and the IC50 [2] is reported as at most 20 nM.

`Cc1c(C(F)(F)F)nnc(Oc2ccc(OC3CCC3)c(F)c2F)c1C(=O)Nc1cccc(S(C)(=N)=O)c1` (stereo not drawn) [Compound 1492, 3-[4-(cyclobutoxy)-2,3-difluoro-phenoxy]-5-methyl-N-[3-(methylsulfonimidoyl)phenyl]-6-(trifluoromethyl)pyridazine-4-carboxamide] was tested, and the IC50 [1] was at most 20 nM and the IC50 [2] was at most 20 nM.

For `Cc1c(C(F)(F)F)nnc(Oc2ccc(OC(F)(F)F)cc2F)c1C(=O)Nc1cccc(S(C)(=N)=O)c1` (stereo not drawn) [Compound 1495, 3-[2-fluoro-4-(trifluoromethoxy)phenoxy]-5-methyl-N-[3-(methylsulfonimidoyl)phenyl]-6-(trifluoromethyl)pyridazine-4-carboxamide], the IC50 [1] was at most 20 nM and the IC50 [2] was at most 20 nM.
